Consider 18 compounds from US20070025902A1, “RECOVERY OF FLUORINATED CARBOXYLIC ACID FROM ADSORBENT PARTICLES” (priority 2005, published 2007).

This data set in a line: Determination of bio-accumulation: urinary clearance pharmacokinetic study in rats. The following applies: oral gavage; for Compound-related Effects: clinical signs of toxicity and gross necropsy 96 hours post-dose.
Setting [1] is: parent compound recovered in urine after 96 h, 73 micro Moles per kg body weight.
Setting [2] is: renal elimination half-life of parent compound from urine, 73 micro Moles per kg body weight, exponential least squares curve fitting.
The mark [3] stands for this setting: 73 micro Moles per kg body weight.
Setting [4] is: no parent compound in urine, based on elimination of the major metabolite C3F7—O—CHFCOO−, 73 micro Moles per kg.

Marks after values point to notes of the source that are not given here.

Turning to `N.O=C(O)C(F)(F)OC(F)(F)C(F)(F)C(F)(F)OC(F)(F)F` [Compound 1, CF3—O—(CF2)3—O—CF2—COONH4], under setting [1], the “% Recovery (96 h)” value amounted to 73%.

With `N.O=C(O)C(F)(F)OC(F)(F)OC(F)(F)F` [Compound 2, CF3—OCF2—O—CF2—COONH4], the “% Recovery (96 h)” value under setting [1] came out at 96%. Further, under setting [2], the “T½” value is listed as 12 h.

For `N.O=C(O)C(F)(F)OC(F)(F)OC(F)(F)OC(F)(F)F` [Compound 3, CF3—OCF2—OCF2—OCF2—COONH4], the “% Recovery (96 h)” value under setting [1] was 100%. Besides, the “T½” value under setting [2] was determined as 12 h.

With `N.O=C(O)C(F)(F)OC(F)(F)C(F)(F)C(F)(F)OC(F)(F)F` [Compound 4, CF3—(OCF2)3—OCF2—COONH4], the “% Recovery (96 h)” value under setting [1] was 50%.

For `N.O=C(O)C(F)(F)OC(F)(F)C(F)(F)C(F)(F)F` [Compound 5, C3F7—O—CF2—COONH4], the “% Recovery (96 h)” value under setting [1] amounted to 97%. Further, the “T½” value under setting [2] was 11 h.

For `N.O=C(O)C(F)(F)C(F)(F)OC(F)(F)F` [Compound 6, CF3—O—CF2—CF2—COONH4], under setting [1], the “% Recovery (96 h)” value worked out at 100%. Besides, the “T½” value under setting [2] was 11 h.

On to `N.O=C(O)C(F)(F)C(F)(F)OC(F)(F)C(F)(F)F` [Compound 7, C2F5—O—CF2—CF2—COONH4], for which the “% Recovery (96 h)” value under setting [1] is 100%. Further, under setting [2], the “T½” value stood at 10 h.

`N.O=C(O)C(F)(F)C(F)(F)OC(F)(F)C(F)(F)C(F)(F)F` [Compound 8, C3F7—O—CF2—CF2—COONH4]: under setting [1], the “% Recovery (96 h)” value was determined as 82%. Under setting [2], the “T½” value was determined as 12 h.

Regarding `N.O=C(O)C(F)(F)C(F)(F)OC(F)(F)C(F)(F)C(F)(F)C(F)(F)F` [Compound 9, C4F9—O—CF2—CF2—COONH4], the “Compound-related Effects” value under setting [3] is given as “Hepatomegaly”. Also, the “% Recovery (96 h)” value under setting [1] is 42%. Moreover, the “T½” value under setting [2] worked out at 31 h.

As for `N.O=C(O)C(F)(F)OC(F)(F)C(F)(F)OC(F)(F)C(F)(F)F` [Compound 10, C2F5—O—CF2—CF2—O—CF2—COONH4], under setting [1], the “% Recovery (96 h)” value amounted to 99%. Besides, the “T½” value under setting [2] is given as 10 h.

With `N.O=C(O)C(F)(F)C(F)OC(F)(F)C(F)(F)C(F)(F)OC(F)(F)F` (centres unmarked) [Compound 11, CF3—O—CF2—CF2—CF2—O—CHF—CF2—COONH4], the “% Recovery (96 h)” value under setting [1] is 84%. For the same compound, the “T½” value under setting [2] is 12 h.

As to `N.O=C(O)C(F)OC(F)(F)C(F)(F)C(F)(F)OC(F)(F)F` (centres unmarked) [Compound 12, CF3—O—CF2—CF2—CF2—O—CHF—COONH4], under setting [1], the “% Recovery (96 h)” value is reported as 95%. Besides, the “T½” value under setting [2] is given as 11 h.

In the case of `N.O=C(O)C(F)(F)C(F)OC(F)(F)C(F)(F)C(F)(F)F` (centres unmarked) [Compound 13, C3F7—O—CFH—CF2COONH4], the “% Recovery (96 h)” value under setting [1] came out at 94%. Besides, the “T½” value under setting [2] came to 11 h.

With `N.O=C(O)C(F)(F)C(F)(F)C(F)(F)C(F)(F)C(F)(F)OC(F)C(F)(F)F` (centres unmarked) [Compound 14, CF3—CFH—O—(CF2)5—COONH4], the “Compound-related Effects” value under setting [3] is “Hepatomegaly”. The “% Recovery (96 h)” value under setting [1] was 32%. Further, the “T½” value under setting [2] was determined as 24 h.

Take `N.O=C(O)C(F)(F)C(F)(F)C(F)(F)OC(F)C(F)(F)F` (centres unmarked) [Compound 15, CF3—CFH—O—(CF2)3—COONH4]: the “% Recovery (96 h)” value under setting [1] is 95%. Moreover, under setting [2], the “T½” value was determined as 8 h.

As to `N.O=C(O)COC(F)(F)C(F)OC(F)(F)C(F)(F)C(F)(F)F` (centres unmarked) [Compound 16, C3F7—O—CFH—CF2—O—CH2—COONH4], under setting [4], the “% Recovery (96 h)” value is reported as 65* % and the “T½ (h)” value is reported as 13* h.

Regarding `N.O=C(O)C(F)(F)C(F)(F)C(F)(F)C(F)(F)C(F)(F)C(F)(F)C(F)(F)F` [Compound C-1, C7F15COONH4, reference compound], the “Compound-related Effects” value under setting [3] is on record as “Hepatomegaly”. Moreover, the “% Recovery (96 h)” value under setting [1] turned out to be 6%. Besides, the “T½ (h)” value under setting [2] is “˜550 h”.

`N.O=C(O)C(F)(F)OC(F)(F)C(F)(OC(F)(F)C(F)(F)C(F)(F)F)C(F)(F)F` (centres unmarked) [Compound C-3, CF3CF2CF2OCF(CF3)CF2OCF2COONH4, reference compound]: under setting [3], the “Compound-related Effects” value is “Hepatomegaly”. Further, under setting [1], the “% Recovery (96 h)” value came to 5%. Besides, the “T½” value under setting [2] is listed as 95 h.
